The results in this text go back to patent publication US20110111016A1, “NON-DNA BASE-CONTAINING POLYNUCLEOTIDE COMPOSITIONS AND THEIR USE FOR THE MODULATION OF IMMUNE RESPONSES” (priority 2009, published 2011).

In one data set the test system is human PBMC. Put plainly: Induction of cytokines from human PBMC (ELISA cytokine capture assay). The settings on record: PBMC of 3 healthy adults, 48 h; increase two-fold that of background control; SEQ ID NOs 1-3 100 μg/mL, CpG 2006 and MCC 1-100 μg/mL, LPS 10 μg/mL. The format is cell-based. An excerpt:
A number of immune adjuvants are known to be capable of eliciting cytokines from human PBMC cells. Examples of such adjuvants are alum, lipopolysaccharide, monophosphoryl lipid A, CpG-containing polynucleotides and non-CpG-containing ODN's, as well as mycobacterial cell wall-DNA complex (MCC). […] PBMC were isolated from whole blood using standard Ficoll-Paque (GE Healthcare Life Sciences, Baie d'Urfé, QC, Canada) gradient centrifugation, and placed in tissue culture plates at a concentration of 10^6 cells/mL (total volume: 1 mL in RPMI 1640 medium containing 10% heat-inactivated FBS, both from Wisent, St-Bruno, QC, Canada) and 50 μg/mL gentamycin sulfate (Sigma-Aldrich Canada, Oakville, ON, Canada). SEQ ID NOs: 1, 2 or 3 were added to give a final concentration of 100 μg/mL, and the cells were cultivated for 48 h. Cytokines (IL-1β, IL-2, IL-6, IL-10 and IL-12p40) in the supernatant at the end of incubation were determined by ELISA using a cytokine capture assay process (Biosource, Camarillo, Calif.). SEQ ID NO: 32 CpG 2006 ODN (1-100 μg/mL, 5′-[…]-3′, […]), MCC (1-100 μg/mL) and LPS (10 μg/mL) were used as positive controls.

The next data set deals with T1, human TLR9 (Homo sapiens, UniProt Q9NR96).
T1 construct: host or cells: HEK293
T1 sequence (Q9NR96 26-1032): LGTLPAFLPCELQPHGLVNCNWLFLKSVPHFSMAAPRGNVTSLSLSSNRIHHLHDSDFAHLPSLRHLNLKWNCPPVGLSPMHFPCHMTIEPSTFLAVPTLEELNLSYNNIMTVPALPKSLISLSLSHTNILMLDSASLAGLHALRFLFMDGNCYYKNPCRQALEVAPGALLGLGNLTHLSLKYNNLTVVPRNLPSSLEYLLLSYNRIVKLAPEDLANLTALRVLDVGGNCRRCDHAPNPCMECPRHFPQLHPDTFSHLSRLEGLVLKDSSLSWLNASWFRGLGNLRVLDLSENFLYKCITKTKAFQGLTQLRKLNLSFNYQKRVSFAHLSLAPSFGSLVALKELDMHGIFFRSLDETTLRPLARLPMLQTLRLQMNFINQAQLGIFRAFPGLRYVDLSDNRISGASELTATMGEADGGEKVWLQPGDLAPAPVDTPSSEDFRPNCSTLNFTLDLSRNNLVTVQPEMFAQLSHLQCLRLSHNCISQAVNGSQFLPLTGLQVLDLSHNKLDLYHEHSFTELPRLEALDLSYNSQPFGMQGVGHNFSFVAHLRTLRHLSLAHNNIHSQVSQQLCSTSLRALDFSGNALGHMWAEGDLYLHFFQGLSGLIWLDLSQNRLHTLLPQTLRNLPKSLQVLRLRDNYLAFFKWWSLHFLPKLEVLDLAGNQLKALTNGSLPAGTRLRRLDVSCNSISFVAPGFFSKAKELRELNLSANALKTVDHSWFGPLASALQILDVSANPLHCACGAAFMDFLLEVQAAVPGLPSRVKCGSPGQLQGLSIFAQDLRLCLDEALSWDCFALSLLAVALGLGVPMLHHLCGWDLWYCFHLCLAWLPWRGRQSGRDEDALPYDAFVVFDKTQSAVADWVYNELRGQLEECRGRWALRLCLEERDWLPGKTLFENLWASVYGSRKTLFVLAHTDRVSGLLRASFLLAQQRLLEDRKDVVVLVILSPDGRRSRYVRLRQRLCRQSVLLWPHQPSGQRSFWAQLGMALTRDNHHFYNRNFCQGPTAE
The data set is described as follows: NF-κB activation (secreted alkaline phosphatase reporter) in HEK293 cells expressing human TLR9. The format is cell-based. The conditions noted are these: HEK293/hTLR9 cell line; polynucleotide final concentration 10 μg/mL; 16-20 hours. As to the method:
Toll-like receptors (TLR) are known to interact with a number of natural and synthetic molecules that can function as immune adjuvants. Examples of these molecules are Poly (I:C) polynucleotides, lipopolysaccharide and CpG-containing polynucleotides. The interaction of non-DNA base-containing polynucleotides (SEQ ID NOs: 1-3) to interact with TLR and induce down-stream signaling was tested by assessing NF-κB activation in HEK293 cells expressing human TLR2, 3, 4, 5, 7, 8 and 9. TLR engagement was determined by measurement of secreted alkaline phosphatase, under the control of a reporter inducible by NF-κB. Appropriate positive controls were used for each TLR. […] HEK293 cells containing the appropriate TLR and NF-κB reporting system (InvivoGen, San Diego, Calif., USA) were placed in wells of 96 well plates (25,000-50,000 cells, in a final volume of 200 μL medium designed for the detection of NF-κB induced secreted alkaline phosphatase expression), and incubated with non-DNA base-containing polynucleotides or positive controls for 16-20 hours. TLR activating activity was determined by measurement of absorbance at 650 nm wavelength using a Coulter AD340C absorbance detector. The results shown are expressed as Optical Density (OD).

Regarding UUGTUU [SEQ ID NO: 2], in the data set with human PBMC, the “Number of individuals responding, IL-1β” value is 0/3; the “Number of individuals responding, IL-2” value is on record as 0/3; the “Number of individuals responding, IL-6” value is given as 1/3; the “Number of individuals responding, IL-10” value is listed as 0/3. Moreover, the “Number of individuals responding, IL-12p40” value (from here on “Number … IL-12p40”) with human PBMC is given as 3/3. On human TLR9, the “TLR activation, Optical Density at 650 nm, hTLR9” value (“TLR activation, Optical Density” below) came to 0.090.
For the substance “NebGGTGNeb (DNA NGGTGN; Nebularine at both ends, sugar and linkages not given here, further chemistry not given here) [SEQ ID NO: 1, 5′-OH, 3′-OH non-DNA base-containing polynucleotide]”, in the data set on human PBMC, the “Number of individuals responding, IL-1β” value was 3/3; the “Number of individuals responding, IL-2” value is reported as 0/3; the “Number of individuals responding, IL-6” value is 3/3; the “Number of individuals responding, IL-10” value is 0/3. Further, in the data set with human PBMC, the “Number … IL-12p40” value is given as 3/3. Besides, in the data set with human TLR9, the “TLR activation, Optical Density” value is on record as 0.074.
Turning to IIGTII [SEQ ID NO: 3], in the data set on human PBMC, the “Number of individuals responding, IL-1β” value is on record as 0/3; the “Number of individuals responding, IL-2” value is recorded as 0/3; the “Number of individuals responding, IL-6” value is listed as 3/3; the “Number of individuals responding, IL-10” value is recorded as 0/3. Further, in the data set on human PBMC, the “Number … IL-12p40” value is recorded as 0/3. Besides, at human TLR9, the “TLR activation, Optical Density” value is listed as 0.083.
